± gives the expanded uncertainty stated by the source.
Conditions: for surface tension liquid-gas: Pendant drop shape; for mass density / viscosity: 101.33 kPa, Liquid; for mass density: Vibrating tube method; for viscosity: Falling or rolling sphere viscometry

In the case of `CCCCn1cc[n+](C)c1.COS(=O)(=O)[O-]` [1-butyl-3-methylimidazolium methyl sulfate], the surface tension liquid-gas (298.15 K) is reported as 43.3 ± 1.2 mN/m, the mass density (298.15 K) is reported as 1212.95 ± 8 kg/m3 and the surface tension liquid-gas (313.15 K) is reported as 42.09 ± 1.1 mN/m. It also gave a viscosity (313.15 K) of 104.2 ± 7.7 mPa·s and a mass density (313.15 K) of 1199.75 ± 7.8 kg/m3.
Work on `CCCCCCCC[n+]1ccn(C)c1.CCOS(=O)(=O)[O-]` [1-methyl-3-octylimidazolium ethyl sulfate] yielded a surface tension liquid-gas (298.15 K) of 28.67 ± 0.41 mN/m, a mass density (298.15 K) of 1115.93 ± 1.1 kg/m3 and a surface tension liquid-gas (313.15 K) of 27.94 ± 0.41 mN/m. It also gave a viscosity (313.15 K) of 275.2 ± 25 mPa·s and a mass density (313.15 K) of 1106.2 ± 1.1 kg/m3.
For `CCCCCCn1cc[n+](C)c1.CCOS(=O)(=O)[O-]` [1-hexyl-3-methylimidazolium ethyl sulfate], the surface tension liquid-gas (298.15 K) was 31.77 ± 0.45 mN/m, the viscosity (298.15 K) was 589 ± 57 mPa·s and the mass density (298.15 K) was 1150.6 ± 1.2 kg/m3. It also gave a surface tension liquid-gas (313.15 K) of 29.63 ± 0.43 mN/m, a viscosity (313.15 K) of 236 ± 19 mPa·s and a mass density (313.15 K) of 1140.6 ± 1.1 kg/m3.
For `CCOS(=O)(=O)[O-].CCn1cc[n+](C)c1` [1-ethyl-3-methylimidazolium ethyl sulfate], the viscosity (298.15 K) was 91.8 ± 6.2 mPa·s, the mass density (298.15 K) was 1236.26 ± 8.3 kg/m3 and the surface tension liquid-gas (313.15 K) was 46.78 ± 1.2 mN/m. For the same compound, the viscosity (313.15 K) was 48.5 ± 3.2 mPa·s and the mass density (313.15 K) was 1226.79 ± 8.2 kg/m3.
Compound `COS(=O)(=O)[O-].Cn1cc[n+](C)c1` [1,3-dimethylimidazolium methylsulfate] has a surface tension liquid-gas (298.15 K) of 59.42 ± 0.8 mN/m, a viscosity (298.15 K) of 75.5 ± 4.7 mPa·s and a mass density (298.15 K) of 1328.38 ± 1.6 kg/m3. For the same compound, the surface tension liquid-gas (313.15 K) was 58.99 ± 0.8 mN/m, the viscosity (313.15 K) was 40.8 ± 2.5 mPa·s and the mass density (313.15 K) was 1317.85 ± 1.6 kg/m3.
`CCCCn1cc[n+](C)c1.CCOS(=O)(=O)[O-]` [1-butyl-3-methyl-1H-imidazolium ethyl sulfate] showed a surface tension liquid-gas (298.15 K) of 36.38 ± 0.51 mN/m, a viscosity (298.15 K) of 379.1 ± 33 mPa·s and a mass density (298.15 K) of 1198.93 ± 1.3 kg/m3. For the same compound, the surface tension liquid-gas (313.15 K) was 33.91 ± 0.48 mN/m, the viscosity (313.15 K) was 164 ± 12 mPa·s and the mass density (313.15 K) was 1188.69 ± 1.2 kg/m3.
Work on `CCCCCCn1cc[n+](C)c1.COS(=O)(=O)[O-]` [1-hexyl-3-methylimidazolium methyl sulfate] yielded a surface tension liquid-gas (298.15 K) of 33.59 ± 0.48 mN/m, a viscosity (298.15 K) of 383 ± 34 mPa·s and a mass density (298.15 K) of 1168.83 ± 1.2 kg/m3. It also gave a surface tension liquid-gas (313.15 K) of 33.54 ± 0.48 mN/m, a viscosity (313.15 K) of 164.3 ± 12 mPa·s and a mass density (313.15 K) of 1158.87 ± 1.2 kg/m3.
For `CCCCCCCC[n+]1ccn(C)c1.COS(=O)(=O)[O-]` [1-methyl-3-octylimidazolium methyl sulfate], the surface tension liquid-gas (298.15 K) was 30.41 ± 0.44 mN/m, the mass density (298.15 K) was 1114.47 ± 1.1 kg/m3 and the surface tension liquid-gas (313.15 K) was 30.03 ± 0.43 mN/m. It also gave a viscosity (313.15 K) of 180.6 ± 15 mPa·s and a mass density (313.15 K) of 1104.64 ± 1.1 kg/m3.

Reference: the NIST ThermoML archive (doi:10.1021/je800863c)
